Experiments:
Type in all cases: physicochemical
[1] = Solubility of tested chemical in 40% AMS (ammonium sulfate)
Protocol: (§1) In example 1, the electrolyte tolerance of 6 chemicals with and without the presence of 2,4-D amine was evaluated in ammonium sulfate system.

[2] = Appearance of 10 g solution of (2.5 wt % ai 2,4-D DMA + tested chemical) after adding 40% AMS; settings: for 0 gram Appearance / Addition Weight of 40% AMS: System was clear after adding / Addition Weight of 40% AMS: System was cloud after adding: 0.13 wt % a.i. of tested chemical, 2.5 wt % ai 2,4-D DMA; for 0 gram Appearance: 0 gram 40% AMS; for Addition Weight of 40% AMS: System was clear after adding / Addition Weight of 40% AMS: System was cloud after adding: 10 g solution; for Added 40% AMS wt into 10 g (2.5% 2,4-D + 0.13% tested chemical in DI water), hazy / Added 40% AMS wt into 10 g (2.5% 2,4-D + 0.13% tested chemical in DI water), still clear: Table of Example 1; for Appearance, added 40% AMS wt into 10 g (2.5% 2,4-D + 0.13% tested chemical in DI water): at 0 g AMS added, or at all additions (All)
Protocol: In this example, the appearance of a 10 g solution of (2.5 wt % ai 2,4-D DMA+tested chemical) was evaluated after adding 40% AMS

[3] = Electrolyte tolerance: 40% AMS added into 10 g 0.13% tested chemical in DI water; settings: for Appearance, added 40% AMS wt into 10 g 0.13% tested chemical in DI water: at 0 g AMS added, or at all additions (All); for Solubility / compatibility in water or AMS solution (in words): without 2,4-D amine
Protocol: as §1

[4] = System appearance and pH after adding chemicals into System A
Text: System appearance after adding various chemicals into “System A” which was 100 g of 3% 2,4-D DMA (50%)+90% water (1000 ppm)+7% Ammonium sulfate (40%).

[5] = Solubility of tested chemical in DI water
Protocol: as §1

[6] = Compatibility of 2,4-D DMA premix with 28% N fertilizer (phase diagram, coarse particle formation)
Protocol: FIG. 2 is a photograph illustrating the effect of cocoamine-2EO methylchloride on coarse particle formation of 2,4-D ammonium salt. (A) 90% 28% N; 1% 2,4-D DMA; and 9% DI water. (B) 90% 28% N; 1% 2,4-D DMA; 5.5% DI water; and 3.5% Coco 2EO quat.
However, if 10% pre-mixed (8:2 water: 2,4-D DMA-50% ai) is added to 90% 28% N, a hazy system with coarse particles (2,4-D NH4 salt) will form in a few minutes at room temperature.

[7] = Crystal formation of 2,4-D in 1000 ppm hard water + AMS after post-adding surfactant; settings: 0.069 g surfactant added to 3% 2,4-DMA (50%) + 90% water (1000 ppm hardness) + 7% AMS (40%), room temperature
Text: FIG. 3 is a photograph illustrating the effect of various concentrations of cocoamine-2EO (“Coco-2”) and/or tallow-10EO (“Tallow-10”) on crystal formation of 2,4-D. (A) 0% Coco-2/0% Tallow-10. (B) 100% Coco-2/0% Tallow-10. (C) 45% Coco-2/55% Tallow-10. (D) 50% Coco-2/50% Tallow-10. (E) 55% Coco-2/45% Tallow-10.(F) 60% Coco-2/40% Tallow-10. (G) 0% Coco-2/100% Tallow-10.
In FIG. 3, sample (0:0) was 3% 2,4-DMA (50%)+90% water (1000 ppm hardness)+7% AMS (40%) and it readily formed crystals at room temperature.
The first sample, (0:0), on the left had no surfactant and it had about 15% crystal at the bottom. The rest of the samples had 0.069 g surfactant post-added to the first sample. […] Sample (0:100) was a little hazy with ˜5% crystal at bottom.

[8] = added into 100 g System A, added wt 0.815 g Ethoquad, 0.079 g NH4OH, 0.091 g dimethylamine, 1.07 g NaOH

| Substance | Solubility of testes chemical in 40% AMS [1] | Compatibility in 2,4-D amine and AMS solution (in words) [2] | 0 gram Appearance [2] | Addition Weight of 40% AMS: System was clear after adding [2] | Addition Weight of 40% AMS: System was cloud after adding [2] | Added 40% AMS wt into 10 g (2.5% 2,4-D + 0.13% tested chemical in DI water), hazy [2] | Added 40% AMS wt into 10 g (2.5% 2,4-D + 0.13% tested chemical in DI water), still clear [2] | Appearance, added 40% AMS wt into 10 g (2.5% 2,4-D + 0.13% tested chemical in DI water) [2] | Appearance, added 40% AMS wt into 10 g 0.13% tested chemical in DI water [3] | Solubility / compatibility in water or AMS solution (in words) [3] | Solubility of tested chemical in DI Water [5] | other results |
| --- | --- | --- | --- | --- | --- | --- | --- | --- | --- | --- | --- | --- |
| Cocoamine-2EO methylchloride | All clear | very good compatibility agent | Clear | 2.21 grams | 2.511 grams | 2.51 g hazy | 2.21 g | clear | All clear | excellent solubility in water and electrolyte tolerance | All clear | pH change of System A (in words) [4]: only changed slightly; Appearance [4, 8]: clear; pH [4, 8]: 5.2; Spray solution obtained ([6]; 10% pre-mixed (8:2 Ethoquad C/12W-43.7%: 2,4-D DMA-50% ai) added to 90% 28% N): non-nozzle plugging spray solution; Effect on formation of coarse particles of the 2,4-D ammonium salt ([6]; 28% N fertilizer, room temperature, FIG. 2): prevent or minimize the formation of coarse particles |
| Cocoamine-2EO | <0.016% | very good compatibility | Clear | 2.096 grams | 2.264 grams | 2.26 g | 2.1 g | clear | All hazy | little compatibility | <0.016% | Appearance of sample [7]: hazy product without crystals; Appearance of sample ([7]; listed as Sample (100:0)): hazy sample with a little oily sediment at bottom |
| Castor oil ethoxylate-36EO | <0.036% | – | Clear | 1.726 grams | 2.141 grams | 2.14 g | 1.73 g | clear | clear | – | >20% | AMS electrolyte tolerated relative to 55EO castor oil ethoxylate ([2]; in 2.5% 2,4-D DMA solution): 3 times; Added 40% AMS wt into 10 g 0.13% tested chemical in DI water, hazy ([3]; no 2,4-D): 3.74 hazy g; Added 40% AMS wt into 10 g 0.13% tested chemical in DI water, still clear ([3]; no 2,4-D): 3.57 g |
